How the values were obtained:
[1] = tested on: transendothelial migration of human neutrophils through HUVEC monolayers; assay: Transendothelial migration (TEM) of neutrophils; type: cell-based; conditions: for % Inhibition of TEM: peptides 0.01 mM, native FHA 1 μM, at least 3 experiments with 6 wells/peptide
Source text: FIG. 26 is a graphical representation of the inhibition of transendothelial migration of neutrophils by FHA peptide Ca, native FHA and mAb IB4 in a concentration dependent fashion. FHA peptide Ca (.largecircle.); intact FHA (.quadrature.); and mAb IB4 (.tangle-solidup.). Values represent mean±standard deviation of at least 3 experiments with 6 wells/peptide.
Transendothelial migration of neutrophils was studied based on a method described by Muller et al. (1992), J. Exp. Med. 176: 819-828. Briefly, human neutrophils suspended in ice-cold Hanks balanced salt solution (HBSS) containing Ca^++ and Mg^++ (Sigma) were fluoresceinated by adding 3.3 μl/ml 5-(and 6-)carboxyfluorescein diacetate, succinimidyl ester (CFSE, Molecular Probes Inc., Oreg.). After incubation for 30 mins. on ice, neutrophils were washed twice in cold HBSS with Ca^++ and Mg^++ and resuspended in cold Medium 199 (M199, Sigma) to a final concentration of 10^6 /ml. Human umbilical vein endothelial cells were subcultured at confluence into 96-well tissue culture plates (Becton Dickinson Labware, Lincoln Park, N.J.) that were coated with hydrated collagen gel (Vitrogen; Collagen Corporation, Palo Alto, Calif.) and fibronectin. Endothelial cells were stimulated with 10 ng/ml TNF-alpha for 4 hours and washed three times with warm M199. Neutrophils (10^6 /ml) were preincubated with 0.01 mM of peptides or with 1 μM of native FHA in M199 for 5 mins. on ice before they were added in 100 μl aliquots to the endothelial cells. For positive control, neutrophils were pre-incubated with 25 μg/ml anti-CD18 mAb IB4. For negative control, neutrophils were treated with 25 μg/ml mAb W6/32 against HLA class I antigen (Dako, Carpinteria, Calif.). The cells were incubated for 1 hour at 37° C., 5% CO2. To terminate transmigration, the supernatant fluid was aspirated and the wells were filled with warm 1 mM EGTA (Sigma) in HBSS without Ca and Mg. The plates were covered with plate sealers (Dynatech, Alexandria, Va.) and centrifuged in an inverted position at 250 g for 3 mins. at room temperature. To remove residual non-transmigrated neutrophils from the endothelial cells, monolayers were washed twice with 200 μl of warm Hanks solution without Ca and Mg. Fluorescence was quantitated using a fluorescence counter (Millipore Cytofluorm™ 2300). The percentage of transmigrated neutrophils was determined by comparing the amount of fluorescence of test wells with that measured in collagen- and fibronectin-coated wells without endothelial cells. […] Percent inhibition of transendothelial migration of neutrophils was calculated by comparing the number of transmigrated cells in wells containing neutrophils treated with peptide to neutrophils treated with M199 alone and arbitrarily set at 100% transendothelial migration (TEM).
The procedures for determining the neutrophil adherence to cultured endothelial cells and the transendothelial migration of neutrophils were identical with those of Example 9. Control values were the same as those shown in Example 9.

[2] = tested on: lactate metabolism during meningeal inflammation; assay: Rabbit model for meningitis: lactate in CSF; type: in vivo, New Zealand white rabbits; conditions: 6 hours after challenge
Procedure: The rabbit model was performed according to an established protocol. Specific pathogen free, New Zealand white rabbits (2 kg; Hare Marland, Nutley, N.J.) were anesthetized with valium (2.5 mg/kg, subcutaneously, Hoffman-LaRoche, Nutley, N.J.), ketamine (35 mg/kg, intra-muscularly, Aveco, Fort Dodge, Iowa) and xylazine (5 mg/kg, intramuscularly, Miles Laboratories, Shawnee, Kans.) and a helmet of dental acrylic was affixed to the calvarium. Twenty four hours later, the rabbits were anesthetized with ethyl carbamate (1.75 g/kg; Aldrich Chemical Co., Milwaukee, Wis.) and pentobarbital (15 mg/kg; Abbott Laboratories, Abbott Park, Ill.) and placed in a stereotaxic frame. A spinal needle was introduced into the cisterna magna and 300 μl of CSF was withdrawn. The animals were challenged intracisternally with 10^8 heat killed, unencapsulated pneumococcus strain R6 introduced in 200 μl of saline (time 0). One hour later, animals were treated with peptides dissolved in 1 ml of saline by intravenous injection into the right marginal ear vein. The concentration of FHA was 0.1 μM and that of the FHA Ia, Factor X II, and scrambled FHA II peptides was 10 μM. For the acetyl-FHA II, acetyl/amide-FHA II, dimer of FHA II and trimer of FHA II peptides, the concentration was 10^-3 μM. The concentration of FHA II is given in the results section. Samples of CSF were withdrawn at hourly intervals after pneumococcal inoculation and leukocyte density was measured using a cell counter (Coulter Electronics Inc., Hialeah, Fla.). CSF samples were centrifuged at 10,000×g for 5 minutes and the supernatant was stored at -70° C. until assayed for protein concentration using the bicinchoninic acid method (ECA Kit, Pierce Chemical Co., Rockford, Ill.) and for lactate concentration (Lactate Detection Kit, Sigma, St. Louis, Mo.). Statistically significant differences between treatments were determined by a one way analysis of variance test.
Loss of barrier function of the cerebral capillary endothelium during inflammation is reflected by an influx of serum proteins into the CSF. […] To examine if the peptides were able to ameliorate these measures of cerebral injury, CSF protein and lactate concentrations were measured hourly in peptide-treated and control animals (Table 10).
Mean values for CSF lactate and protein at time 0 were 18.6±5.8 and 0.8±0.2 respectively. Ten control animals received phosphate-buffered saline. The concentration of FHA II intravenously injected one hour after challenge with pneumococci was 10 μM. Values represent mean±standarddeviation of concentrations in CSF at 6 hours after pneumococcal challenge (n≥4 for peptide treated animals; n=4 for FHA). *Statistically significant difference as compared to control at p<0.02 (Mann-Whitney test).
Again, mean values for CSF lactate and protein at time 0 were 18.6±5.8 and 0.8±0.2, respectively. Ten control animals received phosphate-buffered saline. The concentrations of FHA II intravenously injected was 10^-3 μM. Values represent mean±standard deviation of concentrations in CSF at 6 hours after pneumococcal administration (n≥4 per group).

Row | Substance | % Inhibition of TEM [1] | Lactate in CSF ([2]; peptides 10 μM, FHA 0.1 μM) | other results
1 | AADPHQGVLAQGDIIMDAKG [FHA Cc] | 11 ± 11% |  | 
2 | Ac-ETKEVDG-NH2 [Acetyl/Amide-FHA II] |  | 24.3 ± 3.2 mg/100 ml | 
3 | DEETVK [scrambled FHA II, reference compound] | 4 ± 5% | 40.7 ± 5.8 mg/100 ml | 
4 | ETKEVDG [FHA II] | 21 ± 10% | 25.5 ± 4.1 mg/100 ml | Lactate in CSF ([2]; 10^-3 μM): 35.3 ± 6.7 mg/100 ml
5 | GTLLLRNDALTENGTVTISA [FHA Cd] | 6 ± 6% |  | 
6 | GYDTKQEDG [Factor X II] | 14 ± 9% | 37.6 ± 6.9 mg/100 ml | 
7 | LGYQAK (UniProt P12255 1979-1984, looked up, fragment) [FHA Ia] | 23 ± 5% | 36.0 ± 6.7 mg/100 ml | 
8 | RADPHQGVLAQGDIIMDAKG [FHA Cb] | 8 ± 9% |  | 
9 | RGDPHQGVLAQGDIIMDAKG [FHA Ca] | 83 ± 8% |  | concentration required for inhibition of TEM similar to native FHA (82±1% at 1 μM) [1]: 10 µM; % Inhibition of TEM ([1]; listed as FHA peptide Ca): 83±8%
10 | native FHA: Filamentous hemagglutinin, 220kD surface associated protein of Bordetella pertussis (List Biologicals) | 82±1% | 25.0 ± 5.3 mg/100 ml | % Inhibition of TEM ([1]; listed as FHA): 82 ± 1%; % Inhibition of TEM ([1]; listed as Intact FHA): 82±1%
